Here are results for twelve compounds from PubChem BioAssay AID284 (DTP/NCI, 2004).

Where “and” joins values, the source holds several entries; their conditions need not be identical. Identical values can stand only once. Inconclusive results and toxic doses are left out.

This assay concerns BDF1 mice, L1210/MTX-resistant leukemia ip, survival T/C. Nature of the assay: NCI In Vivo Anticancer Drug Screen. Data for tumor model L1210 Leukemia resistant to Methotrexate; NSC 740 (intraperitoneal) in B6D2F1 (BDF1) mice. The conditions noted are these: endpoint: mean survival time, higher = longer survival. Here is the method:
The antitumor activity of compounds was measured in mice bearing transplantable tumors. Survival or tumor size were measured and the results are expressed as the measurement made in the treated group (T) divided by the measurement made in the vehicle treated control group (C). The tumor model used in this assay is L1210 Leukemia resistant to Methotrexate; NSC 740 (intraperitoneal) in B6D2F1 (BDF1) mice

The mark [1] stands for this setting: dose: 10.0 mg/kg/injection, schedule: Q01DX010 (ip), vehicle: saline.
[2] abbreviates: dose: 20.0 mg/kg/injection, schedule: Q01DX010 (ip), vehicle: saline.
Setting [3] is: dose: 40.0 mg/kg/injection, schedule: Q01DX010 (ip), vehicle: saline.
[4] abbreviates: dose: 125.0 mg/kg/injection, schedule: Q01DX Z (sc), vehicle: steriod suspending solution.

Regarding `CN(C)CC(=O)c1ccc(O)c(O)c1`, the T/C is 117 % of control (dose: 200.0 mg/kg/injection, schedule: Q01DX010 (ip), vehicle: saline); 109 % of control (dose: 300.0 mg/kg/injection, schedule: Q01DX010 (ip), vehicle: saline); 104 % of control (dose: 450.0 mg/kg/injection, schedule: Q01DX010 (ip), vehicle: saline); 111 % of control (dose: 675.0 mg/kg/injection, schedule: Q01DX010 (ip), vehicle: saline).
`O=C(Nc1ccc(C2=NCCN2)cc1)c1ccc(C(=O)Nc2ccc(C3=NCCN3)cc2)c(Cl)c1`: the T/C is, setting by setting: (dose: 1.9 mg/kg/injection, schedule: Q01DX Z (ip), vehicle: other) 88 % of control; (dose: 2.0 mg/kg/injection, schedule: Q01DX010 (ip), vehicle: other) 122 % of control; (dose: 3.8 mg/kg/injection, schedule: Q01DX Z (ip), vehicle: other) 94 % of control; (dose: 7.5 mg/kg/injection, schedule: Q01DX Z (ip), vehicle: other) 97 % of control; (dose: 8.0 mg/kg/injection, schedule: Q01DX010 (ip), vehicle: other) 170 % of control; (dose: 8.5 mg/kg/injection, schedule: Q02DX010 (ip), vehicle: carboxymethylcellulose (CMC)) 123 % of control. For the same compound, the T/C was 118 % of control and 110 % of control (dose: 10.0 mg/kg/injection, schedule: Q01DX Z (ip), vehicle: saline); 97 % of control (dose: 15.0 mg/kg/injection, schedule: Q01DX Z (ip), vehicle: other); 177 % of control and 221 % of control (dose: 16.0 mg/kg/injection, schedule: Q01DX010 (ip), vehicle: other); 124 % of control (dose: 20.0 mg/kg/injection, schedule: Q01DX Z (ip), vehicle: other); 101 % of control (dose: 30.0 mg/kg/injection, schedule: Q01DX Z (ip), vehicle: other); 192 % of control (dose: 30.0 mg/kg/injection, schedule: Q02DX010 (ip), vehicle: carboxymethylcellulose (CMC)). Further, the T/C runs as follows: (dose: 32.0 mg/kg/injection, schedule: Q01DX010 (ip), vehicle: other) 250 % of control and 274 % of control; (dose: 40.0 mg/kg/injection, schedule: Q01DX Z (ip), vehicle: other) 95 % of control; (dose: 45.0 mg/kg/injection, schedule: Q02DX010 (ip), vehicle: carboxymethylcellulose (CMC)) 190 % of control; (dose: 80.0 mg/kg/injection, schedule: Q01DX Z (ip), vehicle: other) 91 % of control; (dose: 80.0 mg/kg/injection, schedule: Q01DX Z (ip), vehicle: saline) 88 % of control.
`CC1CCOS(=O)O1` (centres undefined): the T/C by setting is: under setting [1], 100 % of control; under setting [2], 100 % of control; under setting [3], 90 % of control.
Turning to `C[C@]12CCC(=O)C=C1CC[C@@H]1[C@@H]2C(=O)C[C@@]2(C)[C@H]1CC[C@]2(O)C(=O)CO`, the T/C (dose: 63.0 mg/kg/injection, schedule: Q01DX Z (sc), vehicle: steriod suspending solution) is 101 % of control and 106 % of control; the T/C (dose: 100.0 mg/kg/injection, schedule: Q01DX Z (sc), vehicle: steriod suspending solution) was 89 % of control; the T/C under setting [4] was 98 % of control and 102 % of control.
Regarding `CCC(=O)O[C@H]1CC[C@H]2[C@@H]3CCC4=CC(=O)CC[C@]4(C)[C@H]3CC[C@]12C`, the T/C reads like this: under setting [4], 100 % of control and 102 % of control; (dose: 250.0 mg/kg/injection, schedule: Q01DX Z (sc), vehicle: steriod suspending solution) 102 % of control; (dose: 1000.0 mg/kg/injection, schedule: Q01DX Z (sc), vehicle: steriod suspending solution) 86 % of control and 89 % of control.
`C[C@@H]1C[C@@H]([C@H](O)CC2CC(=O)NC(=O)C2)C(=O)[C@@H](C)C1`: the T/C runs as follows: (dose: 5.0 mg/kg/injection, schedule: Q01DX010 (ip), vehicle: saline) 90 % of control and 105 % of control; (dose: 7.5 mg/kg/injection, schedule: Q01DX Z (ip), vehicle: carboxymethylcellulose (CMC)) 112 % of control and 96 % of control; under setting [1], 103 % of control; (dose: 15.0 mg/kg/injection, schedule: Q01DX Z (ip), vehicle: carboxymethylcellulose (CMC)) 92 % of control and 108 % of control; under setting [2], 97 % of control; (dose: 30.0 mg/kg/injection, schedule: Q01DX Z (ip), vehicle: carboxymethylcellulose (CMC)) 114 % of control. Besides, under setting [3], the T/C was 95 % of control and 97 % of control.
With `Cn1c(N)nc2nc[nH]c2c1=S`, the T/C runs as follows: (dose: 6.25 mg/kg/injection, schedule: Q01DX Z (ip), vehicle: carboxymethylcellulose (CMC)) 108 % of control; under setting [1], 98 % of control; (dose: 12.5 mg/kg/injection, schedule: Q01DX Z (ip), vehicle: carboxymethylcellulose (CMC)) 90 % of control; under setting [2], 95 % of control; (dose: 25.0 mg/kg/injection, schedule: Q01DX Z (ip), vehicle: carboxymethylcellulose (CMC)) 104 % of control; under setting [3], 97 % of control. In addition, the T/C is 119 % of control (dose: 50.0 mg/kg/injection, schedule: Q01DX Z (ip), vehicle: carboxymethylcellulose (CMC)) and 115 % of control (dose: 80.0 mg/kg/injection, schedule: Q01DX010 (ip), vehicle: saline).
Turning to `CSc1ncnc2c1ncn2C1OC(CO)C(O)C1O` (centres undefined), the T/C (dose: 0.5 mg/kg/injection, schedule: Q01DX Z (ip), vehicle: saline) is 102 % of control; the T/C (dose: 1.0 mg/kg/injection, schedule: Q01DX Z (ip), vehicle: saline) was 99 % of control; the T/C (dose: 2.0 mg/kg/injection, schedule: Q01DX Z (ip), vehicle: saline) was 105 % of control; the T/C (dose: 4.0 mg/kg/injection, schedule: Q01DX Z (ip), vehicle: saline) is 112 % of control; the T/C (dose: 6.25 mg/kg/injection, schedule: Q01DX Z (ip), vehicle: saline) was 97 % of control; the T/C under setting [1] is 107 % of control. The T/C is 109 % of control (dose: 12.5 mg/kg/injection, schedule: Q01DX010 (ip), vehicle: saline); 93 % of control (dose: 12.5 mg/kg/injection, schedule: Q01DX Z (ip), vehicle: saline); 106 % of control (dose: 15.0 mg/kg/injection, schedule: Q01DX010 (ip), vehicle: saline); 102 % of control under setting [2].
Consider `CC[C@]1(O)C[C@H]2CN(CCc3c([nH]c4ccccc34)[C@@](C(=O)OC)(c3cc4c(cc3OC)N(C=O)[C@H]3[C@@](O)(C(=O)OC)[C@H](OC(C)=O)[C@]5(CC)C=CCN6CC[C@]43[C@@H]65)C2)C1`, for which the T/C runs as follows: (dose: 0.03 mg/kg/injection, schedule: Q01DX010 (ip), vehicle: saline) 94 % of control; (dose: 0.06 mg/kg/injection, schedule: Q01DX010 (ip), vehicle: saline) 106 % of control; (dose: 0.12 mg/kg/injection, schedule: Q01DX010 (ip), vehicle: saline) 95 % of control; (dose: 0.25 mg/kg/injection, schedule: Q01DX010 (ip), vehicle: saline) 89 % of control.
On to `S=P(N1CCOCC1)(N1CC1)N1CC1`, for which the T/C is, setting by setting: (dose: 2.0 mg/kg/injection, schedule: Q01DX Z (ip), vehicle: carboxymethylcellulose (CMC)) 92 % of control; (dose: 6.0 mg/kg/injection, schedule: Q01DX Z (ip), vehicle: carboxymethylcellulose (CMC)) 93 % of control; (dose: 8.0 mg/kg/injection, schedule: Q01DX Z (ip), vehicle: carboxymethylcellulose (CMC)) 92 % of control; (dose: 10.0 mg/kg/injection, schedule: Q01DX Z (ip), vehicle: carboxymethylcellulose (CMC)) 96 % of control; (dose: 20.0 mg/kg/injection, schedule: Q01DX Z (ip), vehicle: carboxymethylcellulose (CMC)) 95 % of control.
On to `C[n+]1c2ccccc2nc2c(N)cc(N)cc21`, for which the T/C runs as follows: (dose: 3.2 mg/kg/injection, schedule: Q01DX Z (ip), vehicle: other) 101 % of control and 110 % of control; (dose: 6.3 mg/kg/injection, schedule: Q01DX Z (ip), vehicle: other) 116 % of control and 107 % of control; (dose: 8.0 mg/kg/injection, schedule: Q01DX010 (ip), vehicle: saline) 122 % of control; (dose: 12.0 mg/kg/injection, schedule: Q01DX010 (ip), vehicle: saline) 114 % of control; (dose: 12.5 mg/kg/injection, schedule: Q01DX Z (ip), vehicle: other) 103 % of control and 105 % of control; (dose: 18.0 mg/kg/injection, schedule: Q01DX010 (ip), vehicle: saline) 96 % of control.
Turning to `OCC1OC(n2cnc3c(Cl)ncnc32)C(O)C1O` (centres undefined), the T/C by setting is: (dose: 62.5 mg/kg/injection, schedule: Q01DX010 (ip), vehicle: saline) 87 % of control and 90 % of control; (dose: 125.0 mg/kg/injection, schedule: Q01DX010 (ip), vehicle: saline) 95 % of control and 98 % of control; (dose: 250.0 mg/kg/injection, schedule: Q01DX010 (ip), vehicle: saline) 95 % of control and 100 % of control; (dose: 500.0 mg/kg/injection, schedule: Q01DX010 (ip), vehicle: saline) 98 % of control.
